Results reported in patent publication US20200297711A1, “PHARMACEUTICAL COMPOSITION COMPRISING FGFR SELECTIVE TYROSINE KINASE INHIBITOR” (priority 2017, published 2020).

Assays:
[1] = tested on: stomach cancer, lung cancer, bladder cancer, endometrial cancer, bile duct cancer, breast cancer; conditions: endometrial cancer (PTL 1), bile duct cancer (PTL 2), breast cancer (PTL 3); cited from earlier work
[2] = Dose escalation study: tolerability and safety (DLT, MTD, treatment emergent adverse events) of orally administered Compound A 1.5 succinate in patients with solid tumor; type: in vivo
Experimental: The following study was carried out in order to evaluate tolerability and safety when Compound A 1.5 succinate was orally administered to patients with solid tumor. We attempted to determine the maximum tolerated dose (MTD) by evaluating the dose limiting toxicity (DLT) when Compound A 1.5 succinate was orally administered to patients with solid tumor. Each dose in Examples is represented as a dose of Compound A in free form.
A Modified Toxicity Probability Interval (mTPI) design was employed to determine the MTD of Compound A. Each subject was assigned a dose of Compound A in accordance with the rules of the mTPI design based on a target dose-limiting toxicity (DLT) rate of 25% and the corresponding three toxicity probability intervals that was defined as 20 to 30% (proper dosing), 0 to 20% (underdosing) and 30 to 100% (overdosing). The entire dose assignment decision rule can be precalculated under the mTPI design and presented in two-way table as below.
In order to evaluate the PK when administered as a single dose, a single dose of Compound A for each treatment group (at the corresponding dosage for that group) was administered on Day 1. Compound A was administered when fasted, immediately after waking up with at least 10 hours fasting. Taking any meal was prohibited for 2 hours after administration and only drinking water was allowed.
Cycle 1 was started between 8 and 10 days after dosing in Cycle 0 and Compound A was administered continuously once daily. Compound A was administered at least 2 hours after breakfast, and any food intake was prohibited for 1 hour after administration. However, on Day 8 of Cycle 1, Compound A was administered immediately after waking up while the subject was fasted after at least 10 hours of overnight fasting in order to evaluate the PK. Taking any meals was prohibited for 2 hours after administration and only drinking water was allowed.
• (1) Grade 4 neutropenia that persists for more than 7 days or febrile neutropenia • (2) Grade 4 thrombocytopenia or Grade 3 thrombocytopenia that requires blood transfusion • (3) Any Grade 3 or higher non-hematological toxicity with the exception of: • a) Abnormal clinical laboratory values with no clinical significance. • b) Any events which can be managed and controlled to Grade 2 or less by maximal medical management. • (4) New calcification that is considered clinically significance in such as soft tissue, kidney, intestine, heart or lung confirmed by images • (5) Hyperphosphatemia defined as follows • a) >7 mg/dL>7d despite phosphate lowering therapies • b) >9 mg/dL despite phosphate lowering therapies. • (6) Development of any toxicity that is considered to be related to Compound A and where treatment interruption for 8 days or more from Cycle 0 to Cycle 1 is necessary.
The MTD was not defined and the recommended dose was determined to be 140 mg once daily.

[3] = tested on: FGFR2 gene amplified diffused type gastric cancer; assay: Anti-tumor activity, tumor size on CT images, patient; type: in vivo, human; conditions: 180 mg once daily, one patient, Day 1 of Cycle 3 vs before administration
Experimental: Compound A was administered once daily at 180 mg to a patient with FGFR2 gene amplified diffused type gastric cancer (poorly differentiated adenocarcinoma). The left image is that before the administration and the right image is that on Day 1 of Cycle 3.

In the case of `CNC(=O)n1ccc2cc(Oc3ccnc(NC(=O)c4ccc(C5CCN(CCO)CC5)cc4)c3)c(OCCOC)cc21` [Compound A, 5-((2-(4-(1-(2-hydroxyethyl)piperidin-4-yl)benzamide)pyridin-4-yl)oxy)-6-(2-methoxyethoxy)-N-methyl-1H-indole-1-carboxamide], the “cell growth suppressing activity” value [1] is given as “has a cell growth suppressing activity”, the “death or adverse events leading to study drug withdrawal” value ([2]; all cohorts) is given as “No death or adverse events leading to study drug withdrawal were reported” and the “ALP increased, Any Gr, n (%)” value ([2]; human, in vivo) is given as 3 (13). The “AST increased, Any Gr, n (%)” value ([2]; human, in vivo) was 4 (17), the “ATL increased, Any Gr, n (%)” value ([2]; human, in vivo) was 6 (25) and the “ATL increased, ≥Gr3, n (%)” value ([2]; human, in vivo) was 2 (8). The “Anaemia, Any Gr, n (%)” value ([2]; human, in vivo) was 3 (13), the “Constipation, Any Gr, n (%)” value ([2]; human, in vivo) was 2 (8) and the “Creatinine increased, Any Gr, n (%)” value ([2]; human, in vivo) was 9 (38). For the same compound, the “Decreased appetite, Any Gr, n (%)” value ([2]; human, in vivo) was 2 (8), the “Decreased appetite, ≥Gr3, n (%)” value ([2]; human, in vivo) was 1 (4) and the “Diarrhoea, Any Gr, n (%)” value ([2]; human, in vivo) was 6 (25). The “Dysgeusia, Any Gr, n (%)” value ([2]; human, in vivo) was 3 (13), the “Hyperphosphatemia, Any Gr, n (%)” value ([2]; human, in vivo) was 9 (38) and the “Lipase increased, Any Gr, n (%)” value ([2]; human, in vivo) was 5 (21). The “Lymphocyte count decreased, Any Gr, n (%)” value ([2]; human, in vivo) was 2 (8), the “Malaise, Any Gr, n (%)” value ([2]; human, in vivo) was 2 (8) and the “Nausea, Any Gr, n (%)” value ([2]; human, in vivo) was 5 (21). The “Neutrophil count decreased, Any Gr, n (%)” value ([2]; human, in vivo) was 2 (8), the “Neutrophil count decreased, ≥Gr3, n (%)” value ([2]; human, in vivo) was 1 (4) and the “Onychomadesis, Any Gr, n (%)” value ([2]; human, in vivo) was 2 (8). The “PPE syndrome, Any Gr, n (%)” value ([2]; human, in vivo) was 4 (17), the “Retinal detachment, Any Gr, n (%)” value ([2]; human, in vivo) was 3 (13) and the “Stomatitis, Any Gr, n (%)” value ([2]; human, in vivo) was 2 (8). For the same compound, the “Vomiting, Any Gr, n (%)” value ([2]; human, in vivo) was 3 (13), the “Vomiting, ≥Gr3, n (%)” value ([2]; human, in vivo) was 1 (4) and the “White blood cell count decreased, Any Gr, n (%)” value ([2]; human, in vivo) was 2 (8). The “adverse events leading to dose interruptions: anorexia” value ([2]; human, in vivo) was 2 patients, the “adverse events leading to dose interruptions: common cold” value ([2]; human, in vivo) was 1 patient and the “adverse events leading to dose interruptions: macular edema” value ([2]; human, in vivo) was 1 patient. The “adverse events leading to dose interruptions: nausea” value ([2]; human, in vivo) was 3 patients, the “adverse events leading to dose interruptions: neutrophil count decreased” value ([2]; human, in vivo) was 1 patient and the “adverse events leading to dose interruptions: palmar-plantar erythrodysesthesia syndrome” value ([2]; human, in vivo) was 1 patient. The “adverse events leading to dose interruptions: pyrexia” value ([2]; human, in vivo) was 2 patients, the “adverse events leading to dose interruptions: vomiting” value ([2]; human, in vivo) was 2 patients and the “adverse events leading to dose reductions: ALT increased” value ([2]; human, in vivo) was 2 patients. For the same compound, the “adverse events leading to dose reductions: AST increased” value ([2]; human, in vivo) was 1 patient, the “adverse events leading to dose reductions: palmar-plantar erythrodysesthesia syndrome” value ([2]; human, in vivo) was 2 patients and the “dose limiting toxicity (DLT)” value ([2]; human, in vivo) was “one patient at 180 mg dosing experienced the DLT (Grade 3 AST/ALT increased)”. For the same compound, the recommended dose ([2]; human, in vivo) was 140 mg, the “relation of serious adverse events to study drug” value ([2]; human, in vivo) was “none of them were considered to be related to Compound A” and the “maximum tolerated dose (MTD)” value ([2]; once-daily dosing up to 180 mg) was “not defined”. For the same compound, the tumor size [3] was “reduced significantly”.
